Laboratory results from PubChem BioAssay AID2060485 (Molecular Pharmacology Branch, DTP, NCI, 2025).

System: A375 multi-cell spheroids with HUVEC/MSC, viability
Experiment: Anticancer human tumor A375 cell line growth inhibition [GQUAD];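 further: spheroids exposed to compounds for seven days before readout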
Conditions: for IC50: curve of first compound; for viability, T/C: stronger effect = lower value
How it was run: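 Tumor cells were grown as complex spheroids with HUVEC endothelial cells and mesenchymal stem cells as stroma. G-quadruplex stabilizers were combined with targeted agents over half-log dilutions from near the clinical Cmax, or from 10 microM.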

[1] = second compound 0.0316 µM, first compound 0.0316 µM
[2] = second compound 0.0316 µM, first compound 0.1 µM
[3] = second compound 0.0316 µM, first compound 0.316 µM
[4] = second compound 0.0316 µM, first compound 1 µM
[5] = second compound 0.0316 µM, first compound 3.16 µM
[6] = second compound 0.0316 µM, first compound 10 µM
[7] = second compound 0.1 µM, first compound 0.0316 µM
[8] = second compound 0.1 µM, first compound 0.1 µM
[9] = second compound 0.1 µM, first compound 0.316 µM
[10] = second compound 0.1 µM, first compound 1 µM
[11] = second compound 0.1 µM, first compound 3.16 µM
[12] = second compound 0.1 µM, first compound 10 µM
[13] = second compound 0.316 µM, first compound 0.0316 µM
[14] = second compound 0.316 µM, first compound 0.1 µM
[15] = second compound 0.316 µM, first compound 0.316 µM
[16] = second compound 0.316 µM, first compound 1 µM
[17] = second compound 0.316 µM, first compound 3.16 µM
[18] = second compound 0.316 µM, first compound 10 µM
[19] = second compound 1 µM, first compound 0.0316 µM
[20] = second compound 1 µM, first compound 0.1 µM
[21] = second compound 1 µM, first compound 0.316 µM
[22] = second compound 1 µM, first compound 1 µM
[23] = second compound 1 µM, first compound 3.16 µM
[24] = second compound 1 µM, first compound 10 µM
[25] = second compound 3.16 µM, first compound 0.0316 µM
[26] = second compound 3.16 µM, first compound 0.1 µM
[27] = second compound 3.16 µM, first compound 0.316 µM
[28] = second compound 3.16 µM, first compound 1 µM
[29] = second compound 3.16 µM, first compound 3.16 µM
[30] = second compound 3.16 µM, first compound 10 µM
[31] = second compound 10 µM, first compound 0.0316 µM
[32] = second compound 10 µM, first compound 0.1 µM
[33] = second compound 10 µM, first compound 0.316 µM
[34] = second compound 10 µM, first compound 1 µM
[35] = second compound 10 µM, first compound 3.16 µM
[36] = second compound 10 µM, first compound 10 µM

## C=CC(=O)N1CCN(c2nc(=O)n(-c3c(C)ccnc3C(C)C)c3nc(-c4c(O)cccc4F)c(F)cc23)C(C)C1 (stereo unspecified) + Cc1cnc(CNC(=O)c2c(=O)c3ccc(N4CCCN(C)CC4)nc3n3c2sc2ccccc23)cn1
Second compound 0.0316 µM
  IC50: > 10000 nM
Second compound 0.1 µM
  IC50: > 10000 nM
Second compound 0.316 µM
  IC50: > 10000 nM
Second compound 1 µM
  IC50: < 31.6 nM
Second compound 3.16 µM
  IC50: < 31.6 nM
Second compound 10 µM
  IC50: < 31.6 nM
[1]
  viability, T/C: 94.5%
[2]
  viability, T/C: 103%
[3]
  viability, T/C: 109%
[4]
  viability, T/C: 106%
[5]
  viability, T/C: 145%
[6]
  viability, T/C: 129%
[7]
  viability, T/C: 86.7%
[8]
  viability, T/C: 77.3%
[9]
  viability, T/C: 92.9%
[10]
  viability, T/C: 82.3%
[11]
  viability, T/C: 95%
[12]
  viability, T/C: 83.2%
[13]
  viability, T/C: 51.6%
[14]
  viability, T/C: 56.6%
[15]
  viability, T/C: 55.4%
[16]
  viability, T/C: 57%
[17]
  viability, T/C: 59.2%
[18]
  viability, T/C: 58%
[19]
  viability, T/C: 42.4%
[20]
  viability, T/C: 47.9%
[21]
  viability, T/C: 48.8%
[22]
  viability, T/C: 48.6%
[23]
  viability, T/C: 45.1%
[24]
  viability, T/C: 40.2%
[25]
  viability, T/C: 34.9%
[26]
  viability, T/C: 32.5%
[27]
  viability, T/C: 32.7%
[28]
  viability, T/C: 36.4%
[29]
  viability, T/C: 37.6%
[30]
  viability, T/C: 34.1%
[31]
  viability, T/C: 28.8%
[32]
  viability, T/C: 32.9%
[33]
  viability, T/C: 33%
[34]
  viability, T/C: 33.5%
[35]
  viability, T/C: 31.6%
[36]
  viability, T/C: 28.5%

## CC(=O)O[C@H]1C(=O)[C@@]2(C)[C@H]([C@H](OC(=O)c3ccccc3)[C@]3(O)C[C@H](OC(=O)[C@H](O)[C@@H](NC(=O)c4ccccc4)c4ccccc4)C(C)=C1C3(C)C)[C@]1(OC(C)=O)CO[C@@H]1C[C@@H]2O + Cc1cnc(CNC(=O)c2c(=O)c3ccc(N4CCCN(C)CC4)nc3n3c2sc2ccccc23)cn1
Second compound 0.0316 µM
  IC50: 64.2 nM
Second compound 0.1 µM
  IC50: 36.1 nM
Second compound 0.316 µM
  IC50: < 31.6 nM
Second compound 1 µM
  IC50: < 31.6 nM
Second compound 3.16 µM
  IC50: < 31.6 nM
Second compound 10 µM
  IC50: < 31.6 nM
[1]
  viability, T/C: 77.3%
[2]
  viability, T/C: 33%
[3]
  viability, T/C: 18.5%
[4]
  viability, T/C: 14.2%
[5]
  viability, T/C: 14.7%
[6]
  viability, T/C: 19%
[7]
  viability, T/C: 53.3%
[8]
  viability, T/C: 24.9%
[9]
  viability, T/C: 17.8%
[10]
  viability, T/C: 21.1%
[11]
  viability, T/C: 18.1%
[12]
  viability, T/C: 23.2%
[13]
  viability, T/C: 40.1%
[14]
  viability, T/C: 25.9%
[15]
  viability, T/C: 25.2%
[16]
  viability, T/C: 21.2%
[17]
  viability, T/C: 20.1%
[18]
  viability, T/C: 22.8%
[19]
  viability, T/C: 35%
[20]
  viability, T/C: 24.3%
[21]
  viability, T/C: 26.8%
[22]
  viability, T/C: 28.2%
[23]
  viability, T/C: 31%
[24]
  viability, T/C: 32.1%
[25]
  viability, T/C: 30.1%
[26]
  viability, T/C: 23.1%
[27]
  viability, T/C: 24.4%
[28]
  viability, T/C: 28.7%
[29]
  viability, T/C: 28.2%
[30]
  viability, T/C: 33.7%
[31]
  viability, T/C: 26.7%
[32]
  viability, T/C: 23.3%
[33]
  viability, T/C: 23.5%
[34]
  viability, T/C: 23.3%
[35]
  viability, T/C: 26%
[36]
  viability, T/C: 29.6%

## CCc1c2c(nc3ccc(O)cc13)-c1cc3c(c(=O)n1C2)COC(=O)[C@]3(O)CC + Cc1cnc(CNC(=O)c2c(=O)c3ccc(N4CCCN(C)CC4)nc3n3c2sc2ccccc23)cn1
Second compound 0.0316 µM
  IC50: < 0.999 nM
Second compound 0.1 µM
  IC50: < 0.999 nM
Second compound 0.316 µM
  IC50: < 0.999 nM
Second compound 1 µM
  IC50: < 0.999 nM
Second compound 3.16 µM
  IC50: < 0.999 nM
Second compound 10 µM
  IC50: < 0.999 nM
Second compound 0.0316 µM, first compound 0.000999 µM
  viability, T/C: 33.5%
Second compound 0.0316 µM, first compound 0.00316 µM
  viability, T/C: 15.6%
Second compound 0.0316 µM, first compound 0.00999 µM
  viability, T/C: 15.1%
[1]
  viability, T/C: 13.5%
Second compound 0.0316 µM, first compound 0.0999 µM
  viability, T/C: 5.18%
[3]
  viability, T/C: 0.45%
Second compound 0.1 µM, first compound 0.000999 µM
  viability, T/C: 26.9%
Second compound 0.1 µM, first compound 0.00316 µM
  viability, T/C: 14.8%
Second compound 0.1 µM, first compound 0.00999 µM
  viability, T/C: 15.6%
[7]
  viability, T/C: 15.2%
Second compound 0.1 µM, first compound 0.0999 µM
  viability, T/C: 5.86%
[9]
  viability, T/C: 0.41%
Second compound 0.316 µM, first compound 0.000999 µM
  viability, T/C: 26.3%
Second compound 0.316 µM, first compound 0.00316 µM
  viability, T/C: 17.1%
Second compound 0.316 µM, first compound 0.00999 µM
  viability, T/C: 14.8%
[13]
  viability, T/C: 11.9%
Second compound 0.316 µM, first compound 0.0999 µM
  viability, T/C: 4.76%
[15]
  viability, T/C: 0.14%
Second compound 1 µM, first compound 0.000999 µM
  viability, T/C: 22%
Second compound 1 µM, first compound 0.00316 µM
  viability, T/C: 15.4%
Second compound 1 µM, first compound 0.00999 µM
  viability, T/C: 14.2%
[19]
  viability, T/C: 10.1%
Second compound 1 µM, first compound 0.0999 µM
  viability, T/C: 4.05%
[21]
  viability, T/C: 0.08%
Second compound 3.16 µM, first compound 0.000999 µM
  viability, T/C: 19.4%
Second compound 3.16 µM, first compound 0.00316 µM
  viability, T/C: 15.9%
Second compound 3.16 µM, first compound 0.00999 µM
  viability, T/C: 14.4%
[25]
  viability, T/C: 9.47%
Second compound 3.16 µM, first compound 0.0999 µM
  viability, T/C: 0.08%
[27]
  viability, T/C: 0.1%
Second compound 10 µM, first compound 0.000999 µM
  viability, T/C: 18.4%
Second compound 10 µM, first compound 0.00316 µM
  viability, T/C: 16%
Second compound 10 µM, first compound 0.00999 µM
  viability, T/C: 14.6%
[31]
  viability, T/C: 7.32%
Second compound 10 µM, first compound 0.0999 µM
  viability, T/C: 0.15%
[33]
  viability, T/C: 0.15%
